# Experimental data as given in US20140066434A1, “Methods and Compositions for Treating Parkinson's Disease” (ARIAD PHARMACEUTICALS, INC., priority 2011, published 2014).
# Assay: Phase 1 clinical trial, safety
smiles,measurement,setting,value
"Cc1ccc(C(=O)Nc2ccc(CN3CCN(C)CC3)c(C(F)(F)F)c2)cc1C#Cc1cnc2cccnn12 [ponatinib, 3-(Imidazo[1,2-b]pyridazin-3-ylethynyl)-4-methyl-N-(4-((4-methylpiperazin-1-yl)methyl)-3-(trifluoromethyl)phenyl)benzamide]",DLTs,45 mg cohort,a reversible rash was seen with one patient
same,DLTs,60 mg cohort,four patients developed reversible pancreatic related DLT (pancreatitis)
same,DLTs,2 to 30 mg cohorts,No DLTs
same,drug-related adverse events of any grade: anemia,"phase 1, all cohorts",12%
same,drug-related adverse events of any grade: lipase increase,"phase 1, all cohorts",12%
same,drug-related adverse events of any grade: nausea,"phase 1, all cohorts",12%
same,drug-related adverse events of any grade: rash,"phase 1, all cohorts",12%
same,drug-related adverse events of any grade: thrombocytopenia,"phase 1, all cohorts",25%
same,maximum tolerated dose (MTD),"phase 1, mono-hydrochloride salt",45 mg
